Structure (SMILES) | melting point
O=c1[nH]c2ncc(-c3cn[nH]c3)nc2n1CC1CCOCC1 [Compound 183, 6-(1H-Pyrazol-4-yl)-1-((tetrahydro-2H-pyran-4-yl)methyl)-1H-imidazo[4,5-b]pyrazin-2(3H)-one] | 238 to 240 °C
Cl.O=c1[nH]c2ncc(-c3ccc(-c4nnc[nH]4)cc3)nc2n1CCN1CCCCC1 | 194 to 197 °C
O=c1[nH]c2ncc(-c3ccc(-c4nc[nH]n4)nc3)nc2n1CC1CCOCC1 [Compound 202, 6-(6-(1H-1,2,4-Triazol-3-yl)pyridin-3-yl)-1-((tetrahydro-2H-pyran-4-yl)methyl)-1H-imidazo[4,5-b]pyrazin-2(3H)-one] | 353 to 356 °C
COc1ccccc1-n1c(=O)[nH]c2ccc(-c3cccc(O)c3)nc21 [Compound 92, 5-(3-Hydroxyphenyl)-3-(2-methoxyphenyl)-1H-imidazo[4,5-b]pyridin-2(3H)-one] | 240 to 242 °C
O=c1[nH]c2ncc(-c3ccc4[nH]ccc4c3)nc2n1CC1CCCCC1 [Compound 103, 1-(Cyclohexylmethyl)-6-(1H-indol-5-yl)-1H-imidazo[4,5-b]pyrazin-2(3H)-one] | 343 to 346 °C
NC(=O)c1ccc(-c2cnc3[nH]c(=O)n(CCC4CCOCC4)c3n2)cc1 [Compound 149, 4-(2-oxo-3-(2-(Tetrahydro-2H-pyran-4-yl)ethyl)-2,3-dihydro-1H-imidazo[4,5-b]pyrazin-5-yl)benzamide] | 233 to 236 °C
CNC(=O)c1ccc(-c2cnc3[nH]c(=O)n(CC4CCCCC4)c3n2)cc1 [Compound 99, 4-(3-(Cyclohexylmethyl)-2-oxo-2,3-dihydro-1H-imidazo[4,5-b]pyrazin-5-yl)-N-methylbenzamide] | 273 to 275 °C
O=C1Cc2ccc(-c3cnc4[nH]c(=O)n(CC5CCCCC5)c4n3)cc2N1 [Compound 140, 1-(Cyclohexylmethyl)-6-(2-oxoindolin-6-yl)-1H-imidazo[4,5-b]pyrazin-2(3H)-one] | 334 to 336 °C
COc1ccc(-c2cnc3[nH]c(=O)n(CC4CCCCC4)c3n2)cn1 [Compound 131, 1-(Cyclohexylmethyl)-6-(6-methoxypyridin-3-yl)-1H-imidazo[4,5-b]pyrazin-2(3H)-one] | 235 to 237 °C
CNc1ccc(-c2cnc3[nH]c(=O)n(CC4CCOCC4)c3n2)cn1 [Compound 235, 6-(6-(Methylamino)pyridin-3-yl)-1-((tetrahydro-2H-pyran-4-yl)methyl)-1H-imidazo[4,5-b]pyrazin-2(3H)-one] | > 260 °C
O=c1[nH]c2ncc(-c3ccc(-n4cccn4)cc3)nc2n1CC1CCOCC1 [Compound 192, 6-(4-(1H-Pyrazol-1-yl)phenyl)-1-((tetrahydro-2H-pyran-4-yl)methyl)-1H-imidazo[4,5-b]pyrazin-2(3H)-one] | 294 to 296 °C
O=c1[nH]c2ncc(-c3cccnc3)nc2n1CC1CCCCC1 [Compound 101, 1-(Cyclohexylmethyl)-6-(pyridin-3-yl)-1H-imidazo[4,5-b]pyrazin-2(3H)-one] | 205 °C
Cc1cc(-c2nc[nH]n2)ccc1-c1cnc2[nH]c(=O)n(CCC3CCOCC3)c2n1 [Compound 239, 6-(2-methyl-4-(1H-1,2,4-triazol-3-yl)phenyl)-1-(2-(tetrahydro-2H-pyran-4-yl)ethyl)-1H-imidazo[4,5-b]pyrazin-2(3H)-one] | 258 to 260 °C
COC(=O)c1ccc(-c2cnc3[nH]c(=O)n(CC4CCCCC4)c3n2)cc1 [Compound 97, Methyl 4-(3-(cyclohexylmethyl)-2-oxo-2,3-dihydro-1H-imidazo[4,5-b]pyrazin-5-yl)benzoate] | 253 to 255 °C
O=C1CCCN1CCCn1c(=O)[nH]c2ncc(-c3ccc(O)cc3)nc21 [Compound 176, 6-(4-Hydroxyphenyl)-1-(3-(2-oxopyrrolidin-1-yl)propyl)-1H-imidazo[4,5-b]pyrazin-2(3H)-one] | 305 to 306 °C
O=c1[nH]c2ncc(-c3ccc(O)cc3)nc2n1CC1CCOC1 (stereo not shown) [Compound 172, 6-(4-Hydroxyphenyl)-1-((tetrahydrofuran-3-yl)methyl)-1H-imidazo[4,5-b]pyrazin-2(3H)-one] | 256 to 258 °C
COc1cc(-c2cnc3[nH]c(=O)n(CC4CCCCC4)c3n2)ccn1 [Compound 136, 1-(Cyclohexylmethyl)-6-(2-methoxypyridin-4-yl)-1H-imidazo[4,5-b]pyrazin-2(3H)-one] | 295 to 297 °C
O=c1[nH]c2ncc(-c3ccncc3)nc2n1CC1CCCCC1 [Compound 98, 1-(Cyclohexylmethyl)-6-(pyridin-4-yl)-1H-imidazo[4,5-b]pyrazin-2(3H)-one] | 267 to 269 °C
O=C1CCC(Cn2c(=O)[nH]c3ncc(-c4ccc(O)cc4)nc32)N1 (stereo not shown) [Compound 198, 6-(4-Hydroxyphenyl)-1-((5-oxopyrrolidin-2-yl)methyl)-1H-imidazo[4,5-b]pyrazin-2(3H)-one] | 338 to 340 °C
COCCCn1c(=O)[nH]c2ncc(-c3ccc(O)cc3)nc21 [Compound 118, 6-(4-Hydroxyphenyl)-1-(3-methoxypropyl)-1H-imidazo[4,5-b]pyrazin-2(3H)-one] | 208 to 210 °C

Structure (SMILES) | melting point
O=c1[nH]c2ncc(-c3ccc(O)cc3)nc2n1CCc1ccccc1 [Compound 121, 6-(4-Hydroxyphenyl)-1-phenethyl-1H-imidazo[4,5-b]pyrazin-2(3H)-one] | 283 to 284 °C
O=c1[nH]c2ncc(-c3ccc(O)cc3)nc2n1C1CCCCC1 [Compound 95, 1-Cyclohexyl-6-(4-hydroxyphenyl)-1H-imidazo[4,5-b]pyrazin-2(3H)-one] | 318 to 320 °C
O=C1NCc2cc(-c3cnc4[nH]c(=O)n(CC5CCCCC5)c4n3)ccc21 [Compound 127, 1-(Cyclohexylmethyl)-6-(1-oxoisoindolin-5-yl)-1H-imidazo[4,5-b]pyrazin-2(3H)-one] | 337 to 339 °C
COc1cccc(CN2CC(=O)Nc3ncc(-c4ccc(O)cc4)nc32)c1 [Compound 119, 6-(4-Hydroxyphenyl)-4-(3-methoxybenzyl)-3,4-dihydropyrazino[2,3-b]pyrazin-2(1H)-one] | 282 to 283 °C
CC(C)(O)c1ccc(-c2cnc3[nH]c(=O)n(CC4CCCCC4)c3n2)cn1 [Compound 240, 1-(cyclohexylmethyl)-6-(6-(2-hydroxypropan-2-yl)pyridin-3-yl)-1H-imidazo[4,5-b]pyrazin-2(3H)-one] | > 250 °C
O=c1[nH]c2ncc(-c3cccc(-c4cn[nH]n4)c3)nc2n1CC1CCCCC1 [Compound 150, 6-(3-(2H-1,2,3-Triazol-4-yl)phenyl)-1-(cyclohexylmethyl)-1H-imidazo[4,5-b]pyrazin-2(3H)-one] | 299 to 301 °C
O=c1[nH]c2ncc(-c3ccc(O)cc3)nc2n1CC1CCNCC1 [Compound 133, 6-(4-Hydroxyphenyl)-1-(piperidin-4-ylmethyl)-1H-imidazo[4,5-b]pyrazin-2(3H)-one] | 300 °C (dec.)
Cc1nc(-c2ccc(-c3cnc4[nH]c(=O)n(CC5CCOCC5)c4n3)cc2)[nH]c1C [Compound 199, 6-(4-(4,5-Dimethyl-1H-imidazol-2-yl)phenyl)-1-((tetrahydro-2H-pyran-4-yl)methyl)-1H-imidazo[4,5-b]pyrazin-2(3H)-one] | 250 to 254 °C (dec.)
CNC(=O)c1ccc(-c2cnc3[nH]c(=O)n(CC4CCOCC4)c3n2)cc1 [Compound 142, N-Methyl-4-(2-oxo-3-((tetrahydro-2H-pyran-4-yl)methyl)-2,3-dihydro-1H-imidazo[4,5-b]pyrazin-5-yl)benzamide] | 328 to 330 °C
NC(=O)c1ccc(-c2cnc3[nH]c(=O)n(CC4CCOCC4)c3n2)cc1 [Compound 143, 4-(2-oxo-3-((Tetrahydro-2H-pyran-4-yl)methyl)-2,3-dihydro-1H-imidazo[4,5-b]pyrazin-5-yl)benzamide] | 273 to 275 °C
O=C(O)c1ccc(-c2cnc3[nH]c(=O)n(CC4CCCCC4)c3n2)cc1 [Compound 116, 4-(3-(Cyclohexylmethyl)-2-oxo-2,3-dihydro-1H-imidazo[4,5-b]pyrazin-5-yl)benzoic acid] | > 350 °C
O=c1[nH]c2ncc(-c3ccc(O)cc3)nc2n1C1CCOCC1 [Compound 132, 6-(4-Hydroxyphenyl)-1-(tetrahydro-2H-pyran-4-yl)-1H-imidazo[4,5-b]pyrazin-2(3H)-one] | 382 to 383 °C
Cl.NCc1nc(-c2ccc(-c3cnc4[nH]c(=O)n(CC5CCCCC5)c4n3)cc2)n[nH]1 | 326 to 329 °C
N#Cc1ccc(-c2cnc3[nH]c(=O)n(CC4CCCCC4)c3n2)cc1 [Compound 110, 4-(3-(Cyclohexylmethyl)-2-oxo-2,3-dihydro-1H-imidazo[4,5-b]pyrazin-5-yl)benzonitrile] | 255 to 257 °C
O=c1[nH]c2ncc(-c3ccc(-c4cc[nH]n4)cc3)nc2n1CC1CCCCC1 [Compound 160, 6-(4-(1H-Pyrazol-3-yl)phenyl)-1-(cyclohexylmethyl)-1H-imidazo[4,5-b]pyrazin-2(3H)-one] | 292 to 294 °C
O=c1[nH]c2ncc(-c3ccc4[nH]cnc4c3)nc2n1CCC1CCOCC1 [Compound 227, 6-(1H-benzo[d]imidazol-5-yl)-1-(2-(tetrahydro-2H-pyran-4-yl)ethyl)-1H-imidazo[4,5-b]pyrazin-2(3H)-one] | 264 to 265 °C
O=c1[nH]c2ncc(-c3ccccc3)nc2n1CC1CCCCC1 [Compound 124, 1-(Cyclohexylmethyl)-6-phenyl-1H-imidazo[4,5-b]pyrazin-2(3H)-one] | 253 to 255 °C
COCc1nc(-c2ccc(-c3cnc4[nH]c(=O)n(CC5CCOCC5)c4n3)cc2)n[nH]1 [Compound 180, 6-(4-(5-(Methoxymethyl)-1H-1,2,4-triazol-3-yl)phenyl)-1-((tetrahydro-2H-pyran-4-yl)methyl)-1H-imidazo[4,5-b]pyrazin-2(3H)-one] | 273 to 276 °C
Cn1cc(-c2cnc3[nH]c(=O)n(CC4CCOCC4)c3n2)cn1 [Compound 170, 6-(1-Methyl-1H-pyrazol-4-yl)-1-((tetrahydro-2H-pyran-4-yl)methyl)-1H-imidazo[4,5-b]pyrazin-2(3H)-one] | 224 to 226 °C
O=c1[nH]c2ncc(-c3ccc4[nH]cnc4c3)nc2n1CC1CCCCC1 [Compound 148, 6-(1H-Benzo[d]imidazol-5-yl)-1-(cyclohexylmethyl)-1H-imidazo[4,5-b]pyrazin-2(3H)-one] | 217 to 220 °C
